Consider 4 compounds from ChEMBL document CHEMBL1153006, “Synthesis, NMR characterization and in vitro antitumor evaluation of new aminophosphonic acid diesters” (Eur J Med Chem, 2009).

What all share (type): functional, cell-based
Experiment [1] has as its system K562. Put plainly: Cytotoxicity against human K562 cells after 72 hrs by MTT assay. Conditions: K562, 72 h. (Formazan colour is commonly taken as a measure of viable cells.)
Experiment [2] relates to HL-60. Kind of experiment: Cytotoxicity against multidrug-resistant human HL60 cells overexpressing in MRP-1 after 72 hrs by MTT assay. Conditions: HL-60, 72 h.
Experiment [3] concerns LAMA-84. Put plainly: Cytotoxicity against human LAMA-84 cells after 72 hrs by MTT assay. As to conditions: LAMA-84, 72 h.
Experiment [4] concerns HL-60. Put plainly: Cytotoxicity against human HL60 cells after 72 hrs by MTT assay. As to conditions: HL-60, 72 h.

In general, IC50 refers to the midpoint of a concentration-inhibition curve. With `Cc1ccc(/N=C\c2ccc(N(C)C)cc2)cc1`, the IC50 was 213 µM in experiment [1], 226 µM in experiment [2], 252 µM in experiment [3] and more than 400 µM in experiment [4].
With `CCOP(=O)(OCC)C(NCCCN(C)C)c1ccco1` (stereo unspecified), the IC50 in experiment [1] is 353 µM; in experiment [2], 190 µM; in experiment [3], more than 400 µM; in experiment [4], 163 µM.
On to `CCOP(=O)(OCC)C(Nc1ccc(C)cc1)c1ccc(N(C)C)cc1` (stereo unspecified), for which the IC50 is 42.4 µM in experiment [1], 107 µM in experiment [2], 119 µM in experiment [3] and more than 400 µM in experiment [4].
With `Cc1ccc(/N=C\c2ccco2)cc1` [N-FURFURYLIDENE-P-TOLUIDINE], the IC50 is 29.9 µM in experiment [1], 68.6 µM in experiment [2], 39.9 µM in experiment [3] and more than 400 µM in experiment [4].
